The compounds below were run against human 11βHSD1 enzyme (Homo sapiens (Human), UniProt P28845) (assay: biochemical). Conditions: read-out: % inhibition of human 11-βHSD.
Chain of human 11βHSD1 enzyme (P28845 whole entry): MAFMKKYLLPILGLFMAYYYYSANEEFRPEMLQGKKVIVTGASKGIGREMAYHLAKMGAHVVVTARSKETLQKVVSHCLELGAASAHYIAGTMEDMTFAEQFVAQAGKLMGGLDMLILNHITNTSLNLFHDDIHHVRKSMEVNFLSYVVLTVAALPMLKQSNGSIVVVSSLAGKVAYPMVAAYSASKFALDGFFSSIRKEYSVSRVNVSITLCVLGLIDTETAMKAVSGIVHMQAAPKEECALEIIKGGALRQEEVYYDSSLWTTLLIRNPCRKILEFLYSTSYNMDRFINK
Work on `CCCSc1nc(N2CCCC(CC(=O)O)C2)ccc1C(=O)NC1CCCCC1` (centres unmarked) [Example 5, 2-[1-[5-(cyclohexylcarbamoyl)-6-propylsulfanyl-pyridin-2-yl]-3-piperidyl]acetic acid] yielded an inhibition at 30 µM of 86%.
For `CCCSc1nc(N2CCN(CC(=O)O)CC2)ccc1C(=O)NC1CCCCC1` [Example 8, 2-[4-[5-(cyclohexylcarbamoyl)-6-propylsulfanyl-pyridin-2-yl]piperazin-1-yl]acetic acid], the inhibition at 30 µM was 78%.
Compound `CCCSc1nc(N[C@H]2C3CC4CC2C[C@](C(=O)O)(C4)C3)ccc1C(=O)NC1CCCCC1` [Example 9, (3R,5S)-4-[[5-(cyclohexylcarbamoyl)-6-propylsulfanyl-pyridin-2-yl]amino]adamantane-1-carboxylic acid] has an inhibition at 30 µM of 92%.
Work on `CCCSc1nc(N[C@H]2C3CC4CC2C[C@@](C(=O)O)(C4)C3)ccc1C(=O)NC1CCCCC1` [Example 10, (3R,5S)-4-[[5-(cyclohexylcarbamoyl)-6-propylsulfanyl-pyridin-2-yl]amino]adamantane-1-carboxylic acid] yielded an inhibition at 30 µM of 88%.
Work on `CCCSc1nc(N(C)[C@H]2CC[C@H](C(=O)O)CC2)ccc1C(=O)NC1CCCCC1` [Example 11, 4-[[5-(cyclohexylcarbamoyl)-6-propylsulfanyl-pyridin-2-yl]-methyl-amino]cyclohexane-1-carboxylic acid] yielded an inhibition at 30 µM of 83%.
Work on `CCCSc1nc(Oc2cccc(C(=O)O)c2)ccc1C(=O)NC1CCCCC1` [Example 13, 3-[5-(cyclohexylcarbamoyl)-6-propylsulfanyl-pyridin-2-yl]oxybenzoic acid] yielded an inhibition at 30 µM of 94%.
In the case of `CCCSc1nc(Sc2cccc(C(=O)O)c2)ccc1C(=O)NC1CCCCC1` [Example 14, 3-[5-(cyclohexylcarbamoyl)-6-propylsulfanyl-pyridin2-yl]sulfanylbenzoic acid], the inhibition at 30 µM was 78%.
`CCCSc1nc(Sc2ccc(C(=O)O)cc2)ccc1C(=O)NC1CCCCC1` [Example 15, 4-[5-(cyclohexylcarbamoyl)-6-propylsulfanyl-pyridin-2-yl]sulfanylbenzoic acid] gave an inhibition at 30 µM of 73%.
`CCCSc1nc(Oc2ccc(C(=O)O)cc2)ccc1C(=O)NC1CCCCC1` [Example 16, 4-[5-(cyclohexylcarbamoyl)-6-propylsulfanyl-pyridin-2-yl]oxybenzoic acid] gave an inhibition at 30 µM of 43%.
`CCCSc1nc(Oc2ccc(CCC(=O)O)cc2)ccc1C(=O)NC1CCCCC1` [Example 18, 3-[4-[5-(cyclohexylcarbamoyl)-6-propylsulfanyl-pyridin-2-yl]oxyphenyl]propanoic acid] gave an inhibition at 30 µM of 81%.
`CCCSc1nc(Sc2ccc(OCC(=O)O)cc2)ccc1C(=O)NC1CCCCC1` [Example 19, 2-[4-[5-(cyclohexylcarbamoyl)-6-propylsulfanyl-pyridin-2-yl]sulfanylphenoxy]acetic acid] was tested, and the inhibition at 30 µM was 61%.
With `CCCSc1nc(Oc2ccc(OCC(=O)O)cc2)ccc1C(=O)NC1CCCCC1` [Example 20, 2-[4-[5-(cyclohexylcarbamoyl)-6-propylsulfanyl-pyridin-2-yl]oxyphenoxy]acetic acid] the inhibition at 30 µM was 89%.
Compound `CCCSc1nc(Oc2ccc(C(C)C(=O)O)cc2)ccc1C(=O)NC1CCCCC1` (centres unmarked) [Example 21, 2-[4-[5-(cyclohexylcarbamoyl)-6-propylsulfanyl-pyridin-2-yl]oxyphenyl]propanoic acid] has an inhibition at 30 µM of 88%.
`CCCSc1nc(Sc2ccc(CC(=O)O)cc2)ccc1C(=O)NC1CCCCC1` [Example 22, 2-[4-[5-(cyclohexylcarbamoyl)-6-propylsulfanyl-pyridin-2-yl]sulfanylphenyl]acetic acid] was tested, and the inhibition at 30 µM was 65%.
In the case of `CCCSc1nc(Oc2cccc(CC(=O)O)c2)ccc1C(=O)NC1CCCCC1` [Example 23, 2-[3-[5-(cyclohexylcarbamoyl)-6-propylsulfanyl-pyridin-2-yl]oxyphenyl]acetic acid], the inhibition at 30 µM was 78%.
With `CCCSc1nc(Sc2ccccc2C(=O)O)ccc1C(=O)NC1CCCCC1` [Example 24, 2-[5-(cyclohexylcarbamoyl)-6-propylsulfanyl-pyridin-2-yl]sulfanylbenzoic acid] the inhibition at 30 µM was 77%.
With `CCCSc1nc(N2CCC[C@H]2C(=O)O)ccc1C(=O)NC1CCCCC1` [Example 27, (2S)-1-[5-(cyclohexylcarbamoyl)-6-propylsulfanyl-pyridin-2-yl]pyrrolidine-2-carboxylic acid] the inhibition at 30 µM was 94%.
Compound `CCCSc1nc(N2CCC(C(C)C(=O)O)CC2)ccc1C(=O)NC1CCCCC1` (centres unmarked) [Example 28, 2-[1-[5-(cyclohexylcarbamoyl)-6-propylsulfanyl-pyridin-2-yl]-4-piperidyl]propanoic acid] has an inhibition at 30 µM of 86%.
`CCCSc1nc(N2CCCC(C(=O)O)CC2)ccc1C(=O)NC1CCCCC1` (centres unmarked) [Example 31, 1-[5-(cyclohexylcarbamoyl)-6-propylsulfanyl-pyridin-2-yl]azepane-4-carboxylic acid] gave an inhibition at 30 µM of 94%.
For `CCCSc1nc(N2CCC(C)(C(=O)O)CC2)ccc1C(=O)NC1CCCCC1` [Example 32, 1-[5-(cyclohexylcarbamoyl)-6-propylsulfanyl-pyridin-2-yl]-4-methyl-piperidine-4-carboxylic acid], the inhibition at 30 µM was 89%.
For `CCCSc1nc(N2CCC(C(=O)O)(C(C)C)CC2)ccc1C(=O)NC1CCCCC1` [Example 35, 4-[5-(cyclohexylcarbamoyl)-6-propylsulfanyl-pyridin-2-yl]-4-propan-2-yl-piperidine-4-carboxylic acid], the inhibition at 30 µM was 93%.
Compound `CCCSc1nc(N2CCC(C(=O)O)C(C)C2)ccc1C(=O)NC1CCCCC1` (centres unmarked) [Example 36] has an inhibition at 30 µM of 89%.
`CCCSc1nc(N2CCCC(CCC(=O)O)C2)ccc1C(=O)NC1CCCCC1` (centres unmarked) [Example 39, 3-[1-[5-(cyclohexylcarbamoyl)-6-propylsulfanyl-pyridin-2-yl]-3-piperidyl]propanoic acid] showed an inhibition at 30 µM of 74%.
Compound `CCCSc1nc(N2CC(OCC(=O)O)C2)ccc1C(=O)NC1CCCCC1` [Example 40, 2-[1-[5-(cyclohexylcarbamoyl)-6-propylsulfanyl-pyridin-2-yl]azetidin-3-yl]oxyacetic acid] has an inhibition at 30 µM of 87%.
For `CCCSc1nc(N2CCCC(C3(C(=O)O)CCC3)C2)ccc1C(=O)NC1CCCCC1` (centres unmarked) [Example 41, 1-[1-[5-(cyclohexylcarbamoyl)-6-propylsulfanyl-pyridin-2-yl]-3-piperidyl]cyclobutane-1-carboxylic acid], the inhibition at 30 µM was 82%.
With `CCCSc1nc(N2CCC(OCC(=O)O)C2)ccc1C(=O)NC1CCCCC1` (centres unmarked) [Example 43, 2-[1-[5-(cyclohexylcarbamoyl)-6-propylsulfanyl-pyridin-2-yl]pyrrolidin-3-yl]oxyacetic acid] the inhibition at 30 µM was 92%.
Work on `CCCSc1nc(N2CCCC(OC(C)C(=O)O)C2)ccc1C(=O)NC1CCCCC1` (centres unmarked) [Example 44] yielded an inhibition at 30 µM of 85%.
`CCCSc1nc(N2CCCC(OC(C)(C)C(=O)O)C2)ccc1C(=O)NC1CCCCC1` (centres unmarked) [Example 45] gave an inhibition at 30 µM of 85%.
`CCCSc1nc(N2CCCC(OCC(=O)O)C2)ccc1C(=O)NC1CCCCC1` (centres unmarked) [Example 46] showed an inhibition at 30 µM of 83%.
`CCCSc1nc(N2CCCC(C)(C(=O)O)C2)ccc1C(=O)NC1CCCCC1` (centres unmarked) [Example 47, 1-[5-(cyclohexylcarbamoyl)-6-propylsulfanyl-pyridin-2-yl]-3-methyl-piperidine-3-carboxylic acid] was tested, and the inhibition at 30 µM was 90%.
`CCCSc1nc(N2CCC(C(C)(C)C(=O)O)CC2)ccc1C(=O)NC1CCCCC1` [Example 48, 2-[1-[5-(cyclohexylcarbamoyl)-6-propylsulfanyl-pyridin-2-yl]-4-piperidyl]-2-methyl-propanoic acid] gave an inhibition at 30 µM of 75%.
`CCCSc1nc(N2CCC(C3(C(=O)O)CCC3)CC2)ccc1C(=O)NC1CCCCC1` [Example 49, 1-[1-[5-(cyclohexylcarbamoyl)-6-propylsulfanyl-pyridin-2-yl]-4-piperidyl]cyclobutane-1-carboxylic acid] was tested, and the inhibition at 30 µM was 77%.
For `CCCSc1nc(N2CCC(C3(C(=O)O)CC3)CC2)ccc1C(=O)NC1CCCCC1` [Example 50, 1-[1-[5-(cyclohexylcarbamoyl)-6-propylsulfanyl-pyridin-2-yl]-4-piperidyl]cyclopropane-1-carboxylic acid], the inhibition at 30 µM was 81%.
`CCCSc1nc(N2CCOC(C(=O)O)C2)ccc1C(=O)NC1CCCCC1` (centres unmarked) [Example 51, 4-[5-(cyclohexylcarbamoyl)-6-propylsulfanyl-pyridin-2-yl]morpholine-2-carboxylic acid] showed an inhibition at 30 µM of 90%.
In the case of `O=C(O)C[C@@H]1CCCN(c2ccc(C(=O)NC3CCCCC3)c(SC3CCCC3)n2)C1` [Example 52, 2-[(3S)-1-[5-(cyclohexylcarbamoyl)-6-cyclopentylsulfanyl-pyridin-2-yl]-3-piperidyl]acetic acid], the inhibition at 30 µM was 92%.
Work on `O=C(O)C[C@H]1CCCN(c2ccc(C(=O)NC3CCCCC3)c(SC3CCCC3)n2)C1` [Example 55, 2-[(3R)-1-[5-(cyclohexylcarbamoyl)-6-cyclopentylsulfanyl-pyridin-2-yl]-3-piperidyl]acetic acid] yielded an inhibition at 30 µM of 89%.
In the case of `O=C(NC1CCCCC1)c1ccc(N2CCCC(C3(C(=O)O)CC3)C2)nc1SC1CCCC1` (centres unmarked) [Example 56, 1-[1-[5-(cyclohexylcarbamoyl)-6-cyclopentylsulfanyl-pyridin-2-yl]-3-piperidyl]cyclopropane-1-carboxylic acid], the inhibition at 30 µM was 97%.
With `O=C(O)C[C@H]1CCN(c2ccc(C(=O)NC3CCCCC3)c(SC3CCCCC3)n2)C1` [Example 57, 2-[(3R)-1-[5-(cyclohexylcarbamoyl)-6-cyclohexylsulfanyl-pyridin-2-yl]pyrrolidin-3-yl]acetic acid] the inhibition at 30 µM was 97%.
With `O=C(O)C[C@H]1CCCN(c2ccc(C(=O)NC3CCCCC3)c(SC3CCCCC3)n2)C1` [Example 58, 2-[(3R)-1-[5-(cyclohexylcarbamoyl)-6-cyclohexylsulfanyl-pyridin-2-yl]-3-piperidyl]acetic acid] the inhibition at 30 µM was 83%.
Compound `CCCSc1nc(N2CCC[C@@H](CC(=O)O)C2)ccc1C(=O)NC1C2CC3CC(C2)CC1C3` (stereo partly drawn) [Example 59, 2-[(3S)-1-[5-(2-adamantylcarbamoyl)-6-propylsulfanyl-pyridin-2-yl]-3-piperidyl]acetic acid] has an inhibition at 30 µM of 94%.
`CCCSc1nc(N2CC[C@@H](CC(=O)O)C2)ccc1C(=O)NC1C2CC3CC(C2)CC1C3` (stereo partly drawn) [Example 62, 2-[(3S)-1-[5-(2-adamantylcarbamoyl)-6-propylsulfanyl-pyridin-2-yl]pyrrolidin-3-yl]acetic acid] showed an inhibition at 30 µM of 89%.
